Measured values from patent US20250154163A1, “Pyrimidinone-Containing 17-Beta-Hydroxysteroid Dehydrogenase Type 13 Inhibitors” (ENANTA PHARMACEUTICALS, INC., priority 2023, published 2025).

Legend:
[1] = target: T1, Recombinant human 17β-HSD13 (Homo sapiens, UniProt Q7Z5P4); experiment: 17β-HSD13 rapid-fire mass spectrometry assay (RF/MS assay); assay type: biochemical; details: inhibition of 17β-HSD13, RF/MS assay; HSD17B13 80 nM, LTB4 10 μM, NAD+ 0.5 mM, RT 3 h
T1 construct: host or cells: Sf9 insect cells
T1 sequence (Q7Z5P4 20-300): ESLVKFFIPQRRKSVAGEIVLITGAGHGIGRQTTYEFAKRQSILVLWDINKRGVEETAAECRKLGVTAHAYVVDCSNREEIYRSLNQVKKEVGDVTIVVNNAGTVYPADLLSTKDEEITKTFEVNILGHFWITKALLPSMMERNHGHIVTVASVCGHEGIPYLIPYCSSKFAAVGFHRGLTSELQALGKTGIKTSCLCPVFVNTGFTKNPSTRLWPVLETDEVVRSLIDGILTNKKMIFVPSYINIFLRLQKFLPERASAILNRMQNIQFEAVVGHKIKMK
Method in brief: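 Purified recombinant human 17β-HSD13 (sf9-expressed, 80 nM) incubated with compound (0–100 μM), 10 μM LTB4 and 0.5 mM NAD+ in 20 mM Tris pH 7.5, 0.005% BSA, 0.01% Tween-20, 3 h at RT. 12-oxo-LTB4 formation quantified by RapidFire MS/MS; percent conversion normalized to controls, IC50 from variable-slope fit, duplicates.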

[2] = system: C57BL/6J mice fed CDAA-HF; experiment: Fibrotic markers in livers of mice fed choline deficient high fat (CDAA-HF) diet; assay type: in vivo, mouse; details: 20, 60 and 200 mg/kg oral gavage daily, final week of 4 weeks CDAA-HF, *p<0.05 vs vehicle
Method: The choline deficient amino acid defined diet (CDAA) is a well-characterized model of […] associated liver inflammation and fibrosis. The CDAA-HF mouse model is commonly used to preclinically evaluate potential therapeutic targets for non-alcoholic steatohepatitis (NASH). To investigate the effect of Compound 26 (Example 26; 20, 60, and 200 mg/kg, oral gavage, daily) on fibrotic gene and protein parameters, 10 week-old male C57BL/6J mice were fed CDAA-HF (choline deficient, L-amino acid defined, high fat diet; A16092201) for 4 weeks, with Compound 26 treatment only during the final week of the study. On the last day of the study, mice were euthanized by CO2 asphyxiation for tissue collection, and blood was collected by cardiac puncture. Livers were rapidly removed and frozen in liquid nitrogen for downstream mRNA and protein isolation. […] Statistical analysis was performed with One Way ANOVA. *p<0.05 vs vehicle treated (FIG. 1). Col1a1=Collagen; TGFB2=transforming growth factor beta 2. All procedures performed on animals were in accordance with regulations and established guidelines and were reviewed and approved by an Institutional Animal Care and Use Committee or through an ethical review process.

Row | Structure (SMILES) | IC50 [1] | liver collagen (Col1a1) mRNA ([2]; FIG. 1a) | liver TGFB2 (fibrotic cytokine) ([2]; FIG. 1b) | liver fibronectin (fibroblast activation marker) ([2]; FIG. 1c)
1 | COc1ccc(-c2nc3sc4c(O)c(Cl)ccc4c3c(=O)n2Cc2cnco2)c(C2CC2)c1 [Example 26, 7-chloro-2-(2-cyclopropyl-4-methoxyphenyl)-8-hydroxy-3-(oxazol-5-ylmethyl)benzo[4,5]thieno[2,3-d]pyrimidin-4(3H)-one] | < 100 nM | significantly decreases | significantly decreases | significantly decreases
2 | CS(=O)(=O)c1ccc(-c2nc3sc4c(O)c(Cl)ccc4c3c(=O)n2Cc2cnc(C(F)(F)F)nc2)c(C2CC2)c1 [Example 64, 7-chloro-2-(2-cyclopropyl-4-(methylsulfonyl)phenyl)-8-hydroxy-3-((2-(trifluoromethyl)pyrimidin-5-yl)methyl)benzo[4,5]thieno[2,3-d]pyrimidin-4(3H)-one] | < 100 nM |  |  | 
